Reference: the Bradley open melting point set (2014)
Several values for one entry are separate records, joined by “and”; a condition that tells them apart may be missing. Equal values may be shown once.

SMILES	melting point
Cc1cc([N+](=O)[O-])ccc1Cl [2-chloro-5-nitrotoluene]	43 °C
FC(F)(F)c1cccc(Cl)n1 [2-chloro-6-(trifluoromethyl)pyridine]	29 °C
Oc1cccc(Cl)n1 [2-chloro-6-hydroxypyridine]	130 °C
O=C(O)c1c(Cl)cccc1[N+](=O)[O-] [2-chloro-6-nitrobenzoic acid]	164 °C
Cc1c(Cl)cccc1[N+](=O)[O-] [2-chloro-6-nitrotoluene]	36 °C
Clc1nc2ccccc2[nH]1 [2-chlorobenzimidazole]	183 °C
O=C(O)c1ccccc1Cl [2-chlorobenzoic acid]	140 °C
O=C(c1ccccc1)c1ccccc1Cl [2-chlorobenzophenone]	46 °C
N#CCC(=O)c1ccccc1Cl [2-chlorobenzoylacetonitrile]	56 °C
OCc1ccccc1Cl [2-chlorobenzyl alcohol]	70 °C
ClCc1ccccc1Cl [2-chlorobenzyl chloride]	-13 °C
CCC(C)Cl (configuration not stated) [2-chlorobutane]	-141 °C
Clc1ncc[nH]1 [2-chloroimidazole]	166 °C
CCCC(C)Cl (configuration not stated) [2-chloropentane]	-137 °C
Oc1ccccc1Cl [2-chlorophenol]	8 °C
O=C(O)Cc1ccccc1Cl [2-chlorophenylacetic acid]	96 °C
CC(C)Cl [2-chloropropane]	-117 °C
[O-][n+]1ccccc1Cl [2-chloropyridine n-oxide]	69 °C
O=Cc1cccnc1Cl [2-chloropyridine-3-carboxaldehyde]	52 °C
Clc1ccccn1 [2-chloropyridine]	-46 °C
N#Cc1ccccc1C=O [2-cyanobenzaldehyde]	104 °C
CCOC(=O)N1c2ccccc2C=CC1OCC (configuration not stated) [2-ethoxy-1-ethoxycarbonyl-1,2-dihydroquinoline]	65 °C

SMILES	melting point
CCOCCO [2-ethoxyethanol]	-90 °C
CCOCCOC(C)=O [2-ethoxyethyl acetate]	-62 °C
CCc1ccc2c(c1)C(=O)c1ccccc1C2=O [2-ethylanthraquinone]	109 °C
C=CC(=O)OCC(CC)CCCC (configuration not stated) [2-ethylhexyl acrylate]	-90 °C
CCc1ncc[nH]1 [2-ethylimidazole]	82 °C
CCc1ccc2ccccc2c1 [2-ethylnaphthalene]	-7.35 °C
O=C(O)c1ccc(C(F)(F)F)cc1F [2-fluoro-4-(trifluoromethyl)benzoic acid]	168 °C
OCc1ccc(F)c(B(O)O)c1 [2-fluoro-5-(hydroxymethyl)benzeneboronic acid]	71 °C
N#Cc1cc([N+](=O)[O-])ccc1F [2-fluoro-5-nitrobenzonitrile]	71 °C
COc1cccc(F)c1B(O)O [2-fluoro-6-methoxybenzeneboronic acid]	125 °C
N[C@H](Cc1ccccc1F)C(=O)O [2-fluoro-D-phenylalanine]	210 °C
O=Cc1ccccc1B(O)O [2-formylbenzeneboronic acid]	118 °C
NNC(=O)c1ccco1 [2-furohydrazide]	80 °C
CCCCCCCCCCCCCCC(C)O (configuration not stated) [2-hexadecanol]	47 °C
CCCCC(C)=O [2-hexanone]	-56 °C
CC#CCCC [2-hexyne]	-90 °C
OB(O)c1ccccc1O [2-hydroxybenzeneboronic acid]	185 °C
OCc1ccccc1O [2-hydroxybenzyl alcohol]	85 °C
O=c1ccc2ccccc2[nH]1 [2-hydroxyquinoline]	198 °C
O=C(O)CC1Cc2ccccc2C1 [2-indanylacetic acid]	92 °C
Cn1ccnc1I [2-iodo-1-methylimidazole]	81 °C
CC(C)(C)I [2-iodo-2-methylpropane]	-38 °C

SMILES	melting point
CCC(C)I (configuration not stated) [2-iodobutane]	-104 °C
Oc1ccccc1I [2-iodophenol] [listing 1 of 2 here]	43 °C and 38.5 °C
Oc1ccccc1I [2-iodophenol] [listing 2 of 2 here]	40 °C
CC(C)c1ccccc1O [2-isopropylphenol]	16 °C
Cn1ccnc1S [2-mercapto-1-methylimidazole]	146 °C
Sc1nc2ccccc2[nH]1 [2-mercaptobenzimidazole]	303 °C
Sc1nc2ccccc2s1 [2-mercaptobenzothiazole]	180 °C
[O-][n+]1ccccc1S [2-mercaptopyridine n-oxide]	71 °C
COc1ccc2ccccc2c1C=O [2-methoxy-1-naphthaldehyde]	84 °C
COc1cc(C)ccc1O [2-methoxy-4-methylphenol]	6 °C
COc1ccccc1B(O)O [2-methoxybenzeneboronic acid]	104 °C
COc1ccccc1C(=O)O [2-methoxybenzoic acid]	101 °C
COCCOCCOC [2-methoxyethyl_ether]	-64 °C
COc1ccccc1OC(=O)c1ccccc1 [2-methoxyphenyl benzoate]	59 °C
COc1ccccc1CC#N [2-methoxyphenylacetonitrile]	68 °C
CC1=CC(=O)c2ccccc2C1=O [2-methyl-1,4-naphthoquinone]	106 °C
CC1=NC2=CCC=CC2=C1C#N [2-methyl-1H-indole-3-carbonitrile]	213 °C
CCC(C)(C)O [2-methyl-2-butanol]	-8 °C
CC=C(C)C [2-methyl-2-butene]	-134 °C
CCCCCC(C)(C)O [2-methyl-2-heptanol]	-50 °C
CCCC(C)(C)O [2-methyl-2-pentanol]	-102 °C
CC(C)(C)O [2-methyl-2-propanol]	26 °C

SMILES	melting point
Cc1ccc(-c2ccccc2)s1 [2-methyl-5-phenylthiophene]	48 °C
CC1C(=O)CCCC1=O [2-methylcyclohexane-1,3-dione]	206 °C
CCCCCCC(C)C [2-methyloctane]	-80 °C
CC1CCCCN1 (configuration not stated) [2-methylpiperidine]	-4 °C
CCCCCCCCC(CCCCCC)C(=O)O (configuration not stated) [2-n-hexyldecanoic acid]	10 °C
O=C(O)c1ccc2ccccc2c1 [2-naphthoic acid]	184 °C
Oc1ccc2ccccc2c1 [2-naphthol] [listing 1 of 2 here]	123 °C and 122 °C
Oc1ccc2ccccc2c1 [2-naphthol] [listing 2 of 2 here]	122 °C
N#CCc1ccc2ccccc2c1 [2-naphthylacetonitrile]	83 °C
Cc1cccc(C)c1[N+](=O)[O-] [2-nitro-1,3-dimethylbenzene]	16 °C
O=[N+]([O-])c1ccccc1C=NO [2-nitrobenzaldoxime]	100 °C
NC(=O)c1ccccc1[N+](=O)[O-] [2-nitrobenzamide]	176 °C
N#Cc1ccccc1[N+](=O)[O-] [2-nitrobenzonitrile]	109 °C
N#CCc1ccccc1[N+](=O)[O-] [2-nitrophenylacetonitrile]	83 °C
O=[N+]([O-])c1c(O)cccc1O [2-nitroresorcinol]	83 °C
Cc1ccccc1[N+](=O)[O-] [2-nitrotoluene]	-4 °C
CCCCCCCC(C)=O [2-nonanone] [listing 1 of 2 here]	-15 °C
CCCCCCCC(C)=O [2-nonanone] [listing 2 of 2 here]	-8 °C
Nc1ccccc1Oc1ccccc1 [2-phenoxyaniline]	47 °C
OCCOc1ccccc1 [2-phenoxyethanol]	12 °C
BrCCOc1ccccc1 [2-phenoxyethyl bromide]	33 °C
C=C(C)c1ccccc1 [2-phenyl-1-propene]	-23 °C

SMILES	melting point
CC(C)(O)c1ccccc1 [2-phenyl-2-propanol]	34 °C
C#CC(C)(O)c1ccccc1 (configuration not stated) [2-phenyl-3-butyn-2-ol]	49 °C
c1ccc(-c2nc3ccccc3[nH]2)cc1 [2-phenylbenzimidazole]	297 °C
NCCc1ccccc1 [2-phenylethylamine]	-60 °C
Cc1cccc[n+]1[O-] [2-picoline n-oxide]	48 °C
C=CCc1ccccc1C(=O)O [2-prop-2-en-1-ylbenzoic acid]	84 °C
CC(C)S [2-propanethiol]	-131 °C
CC(=O)OC1=c2ccccc2=NC1c1ccccn1 (configuration not stated) [2-pyridin-2-yl-1H-indol-3-yl acetate]	130 °C
O=C1OS(=O)(=O)c2ccccc21 [2-sulfobenzoic anhydride]	120 °C
CCCCCCCCCC(C)O (configuration not stated) [2-undecanol]	2 °C
CN(C)c1ccc(CNC2=CC(=O)c3ccccc3C2=O)cc1 [2-{[4-(dimethylamino)benzyl]amino}naphthalene-1,4-dione]	166 °C
Cc1ccc(CNC2=CC(=O)c3ccccc3C2=O)nc1 [2-{[(5-methylpyridin-2-yl)methyl]amino}naphthalene-1,4-dione]	135 °C
O=C1C=C(NCNc2ccccn2)C(=O)c2ccccc21 [2-{[(pyridin-2-ylamino)methyl]amino}naphthalene-1,4-dione]	135 °C
Cc1cc(C)n(CN(CCO)Cn2nc(C)cc2C)n1 [2-{bis[(3,5-dimethyl-1H-pyrazol-1-yl)methyl]amino}ethanol]	83 °C
O=C1COc2cccnc2N1 [2h-pyrido[3,2-b]-1,4-oxazin-3(4h)-one]	206 °C
O=c1cc(-c2ccc(O)c(O)c2)oc2ccccc12 [3',4'-dihydroxyflavone]	251 °C
CC(=O)c1cc(F)cc(F)c1O [3',5'-difluoro-2'-hydroxyacetophenone]	107 °C
CC(=O)c1cc(O)cc(O)c1 [3',5'-dihydroxyacetophenone]	144 °C
CC(=O)c1cc(C)cc(C)c1 [3',5'-dimethylacetophenone]	20 °C
